Measured values taken from US10457709B2, “Antimicrobial peptides, their variants and uses” (priority 2015, dated 2019).
Read-outs that look alike come from different tables or passages of the source. Square brackets hold non-standard residues; d marks the D form. Peptide text beside a SMILES is read from it.

Experiments:
[1] = tested on: Enterobacter cloacae clinical strains; type: cell-based; parameters: Minimum inhibitory concentration: unit: μg/ml; details: microdilution, Muller Hinton broth-cation adjusted, 0.02% BSA, 0.2% acetic acid
Method in brief: (§1)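 MIC recorded as the lowest peptide level, within 0.125–128 μg/ml, that left no visible growth after 20–24 h at 37° C. Inoculum was 5.0×10^5 cfu/ml of clinical isolates. Medium was potato dextrose broth for yeasts and Mueller Hinton broth for bacteria, in a broth microdilution format.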

[2] = tested on: Proteus mirabilis clinical strains; type: cell-based; parameters: Minimum inhibitory concentration: unit: μg/ml; details: microdilution, Muller Hinton broth-cation adjusted, 0.02% BSA, 0.2% acetic acid
Method in brief: as §1

[3] = tested on: Serratia marcescens clinical strains; type: cell-based; parameters: Minimum inhibitory concentration: unit: μg/ml; details: microdilution, Muller Hinton broth-cation adjusted, 0.02% BSA, 0.2% acetic acid
Method in brief: as §1

[4] = tested on: Staphylococcus aureus clinical strains; type: cell-based; parameters: Minimum inhibitory concentration: unit: μg/ml; details: microdilution, Muller Hinton broth-cation adjusted, 0.02% BSA, 0.2% acetic acid
Method in brief: as §1

[5] = tested on: Streptococcus pneumoniae clinical strains; type: cell-based; parameters: Minimum inhibitory concentration: unit: μg/ml; details: microdilution, Muller Hinton broth-cation adjusted, 0.02% BSA, 0.2% acetic acid
Method in brief: as §1

[6] = tested on: Candida albicans clinical strains; assay: MIC, clinical yeast strains; type: cell-based; parameters: unit: μg/ml
Method in brief: as §1

[7] = tested on: C. glabrata clinical strains; assay: MIC, clinical yeast strains; type: cell-based, Candida glabrata; parameters: unit: µg/ml
Method in brief: as §1

[8] = tested on: C. parapsilosis clinical strains; assay: MIC, clinical yeast strains; type: cell-based, Candida parapsilosis; parameters: unit: µg/ml
Method in brief: as §1

[9] = tested on: C. quillermondiae clinical strains; assay: MIC, clinical yeast strains; type: cell-based, Candida quillermondiae; parameters: unit: μg/ml; details: C. quillermondiae clinical yeast strain 1
Method in brief: as §1

[10] = tested on: Escherichia coli clinical strains; type: cell-based; details: microdilution, Muller Hinton broth-cation adjusted, 0.02% BSA, 0.2% acetic acid
Method in brief: as §1

[11] = tested on: Klebsiella pneumoniae clinical strains; type: cell-based; details: microdilution, Muller Hinton broth-cation adjusted, 0.02% BSA, 0.2% acetic acid
Method in brief: as §1

[12] = tested on: Pseudomonas aeruginosa clinical strains; type: cell-based; details: microdilution, Muller Hinton broth-cation adjusted, 0.02% BSA, 0.2% acetic acid
Method in brief: as §1

[13] = Enterobacter cloacae clinical strain 1
[14] = Enterobacter cloacae clinical strain 2
[15] = Enterobacter cloacae clinical strain 3
[16] = Enterobacter cloacae clinical strain 4
[17] = Enterobacter cloacae clinical strain 5
[18] = Proteus mirabilis clinical strain 1
[19] = Proteus mirabilis clinical strain 2
[20] = Proteus mirabilis clinical strain 3
[21] = Proteus mirabilis clinical strain 4
[22] = Proteus mirabilis clinical strain 5
[23] = Serratia marcescens clinical strain 1
[24] = Serratia marcescens clinical strain 2
[25] = Serratia marcescens clinical strain 3
[26] = Serratia marcescens clinical strain 4
[27] = Serratia marcescens clinical strain 5
[28] = Staphylococcus aureus clinical strain 1
[29] = Staphylococcus aureus clinical strain 2
[30] = Staphylococcus aureus clinical strain 3
[31] = Staphylococcus aureus clinical strain 4
[32] = Staphylococcus aureus clinical strain 5
[33] = Streptococcus pneumoniae clinical strain 1
[34] = Streptococcus pneumoniae clinical strain 2
[35] = Streptococcus pneumoniae clinical strain 3
[36] = Streptococcus pneumoniae clinical strain 4
[37] = Streptococcus pneumoniae clinical strain 5
[38] = Candida albicans clinical yeast strain 1
[39] = Candida albicans clinical yeast strain 2
[40] = Candida albicans clinical yeast strain 3
[41] = Candida albicans clinical yeast strain 4
[42] = Candida albicans clinical yeast strain 5
[43] = C. glabrata clinical yeast strain 1
[44] = C. glabrata clinical yeast strain 2
[45] = C. glabrata clinical yeast strain 3
[46] = C. glabrata clinical yeast strain 4
[47] = C. parapsilosis clinical yeast strain 1
[48] = C. parapsilosis clinical yeast strain 2
[49] = C. parapsilosis clinical yeast strain 3
[50] = C. parapsilosis clinical yeast strain 4
[51] = Escherichia coli clinical strain 1
[52] = Escherichia coli clinical strain 2
[53] = Escherichia coli clinical strain 3
[54] = Escherichia coli clinical strain 4
[55] = Escherichia coli clinical strain 5
[56] = Klebsiella pneumoniae clinical strain 1
[57] = Klebsiella pneumoniae clinical strain 2
[58] = Klebsiella pneumoniae clinical strain 3
[59] = Klebsiella pneumoniae clinical strain 4
[60] = Klebsiella pneumoniae clinical strain 5
[61] = Pseudomonas aeruginosa clinical strain 1
[62] = Pseudomonas aeruginosa clinical strain 2
[63] = Pseudomonas aeruginosa clinical strain 3
[64] = Pseudomonas aeruginosa clinical strain 4
[65] = Pseudomonas aeruginosa clinical strain 5

CC(C)C[C@@H](NC(=O)[C@H](N)CCCNC(=N)N)C(=O)N[C@H](CCCCN)C(=O)N[C@H](Cc1c[nH]c2ccccc12)C(=O)N[C@H](Cc1ccccc1)C(=O)N[C@H](Cc1c[nH]c2ccccc12)C(=O)N[C@H](CC(C)C)C(=O)N[C@H](Cc1ccccc1)C(=O)N[C@H](CCCNC(=N)N)C(=O)N[C@H](CCCCN)C(=O)N[C@H](CCCNC(=N)N)C(=O)O [Chain307D] (H-[dR][dL][dK][dW][dF][dW][dL][dF][dR][dK][dR]-OH)
Minimum inhibitory concentration [1, 13]: 4
Minimum inhibitory concentration [1, 14]: 8
Minimum inhibitory concentration [1, 15]: 4
Minimum inhibitory concentration [1, 16]: 4
Minimum inhibitory concentration [1, 17]: 4
Minimum inhibitory concentration [2, 18]: >128
Minimum inhibitory concentration [2, 19]: 128
Minimum inhibitory concentration [2, 20]: 128
Minimum inhibitory concentration [2, 21]: >128
Minimum inhibitory concentration [2, 22]: >128
Minimum inhibitory concentration [3, 23]: >128
Minimum inhibitory concentration [3, 24]: >128
Minimum inhibitory concentration [3, 25]: 128
Minimum inhibitory concentration [3, 26]: >128
Minimum inhibitory concentration [3, 27]: >128
Minimum inhibitory concentration [4, 28]: 2
Minimum inhibitory concentration [4, 29]: 2
Minimum inhibitory concentration [4, 30]: 2
Minimum inhibitory concentration [4, 31]: 2
Minimum inhibitory concentration [4, 32]: 2
Minimum inhibitory concentration [5, 33]: 4
Minimum inhibitory concentration [5, 34]: 4
Minimum inhibitory concentration [5, 35]: 4
Minimum inhibitory concentration [5, 36]: 2
Minimum inhibitory concentration [5, 37]: 2
Minimum inhibitory concentration [6, 38]: 16
Minimum inhibitory concentration [6, 39]: 16
Minimum inhibitory concentration [6, 40]: 16
Minimum inhibitory concentration [6, 41]: 16
Minimum inhibitory concentration [6, 42]: 16
Minimum inhibitory concentration [7, 43]: 8
Minimum inhibitory concentration [7, 44]: 16
Minimum inhibitory concentration [7, 45]: 8
Minimum inhibitory concentration [7, 46]: 16
Minimum inhibitory concentration [8, 47]: 16
Minimum inhibitory concentration [8, 48]: 8
Minimum inhibitory concentration [8, 49]: 8
Minimum inhibitory concentration [8, 50]: 8
Minimum inhibitory concentration [9]: 4
Minimum inhibitory concentration [10, 51]: 4
Minimum inhibitory concentration [10, 52]: 4
Minimum inhibitory concentration [10, 53]: 4
Minimum inhibitory concentration [10, 54]: 2
Minimum inhibitory concentration [10, 55]: 4
Minimum inhibitory concentration [11, 56]: 8
Minimum inhibitory concentration [11, 57]: 8
Minimum inhibitory concentration [11, 58]: 16
Minimum inhibitory concentration [11, 59]: 16
Minimum inhibitory concentration [11, 60]: 4
Minimum inhibitory concentration [12, 61]: 16
Minimum inhibitory concentration [12, 62]: 16
Minimum inhibitory concentration [12, 63]: 16
Minimum inhibitory concentration [12, 64]: 8
Minimum inhibitory concentration [12, 65]: 8

CC(C)C[C@@H](NC(=O)[C@H](N)CCCCN)C(=O)N[C@H](CCCCN)C(=O)N[C@H](Cc1c[nH]c2ccccc12)C(=O)N[C@H](Cc1ccccc1)C(=O)N[C@H](Cc1c[nH]c2ccccc12)C(=O)N[C@H](CC(C)C)C(=O)N[C@H](Cc1ccccc1)C(=O)N[C@H](CCCCN)C(=O)N[C@H](CCCCN)C(=O)N[C@H](CCCNC(=N)N)C(=O)O [Chain311D] (H-[dK][dL][dK][dW][dF][dW][dL][dF][dK][dK][dR]-OH)
Minimum inhibitory concentration [1, 13]: 4
Minimum inhibitory concentration [1, 14]: 4
Minimum inhibitory concentration [1, 15]: 4
Minimum inhibitory concentration [1, 16]: 4
Minimum inhibitory concentration [1, 17]: 2
Minimum inhibitory concentration [2, 18]: >128
Minimum inhibitory concentration [2, 19]: 128
Minimum inhibitory concentration [2, 20]: 128
Minimum inhibitory concentration [2, 21]: >128
Minimum inhibitory concentration [2, 22]: >128
Minimum inhibitory concentration [3, 23]: >128
Minimum inhibitory concentration [3, 24]: >128
Minimum inhibitory concentration [3, 25]: >128
Minimum inhibitory concentration [3, 26]: >128
Minimum inhibitory concentration [3, 27]: >128
Minimum inhibitory concentration [4, 28]: 1
Minimum inhibitory concentration [4, 29]: 1
Minimum inhibitory concentration [4, 30]: 1
Minimum inhibitory concentration [4, 31]: 1
Minimum inhibitory concentration [4, 32]: 1
Minimum inhibitory concentration [5, 33]: 16
Minimum inhibitory concentration [5, 34]: 8
Minimum inhibitory concentration [5, 35]: 16
Minimum inhibitory concentration [5, 36]: 4
Minimum inhibitory concentration [5, 37]: 8
Minimum inhibitory concentration [6, 38]: 8
Minimum inhibitory concentration [6, 39]: 8
Minimum inhibitory concentration [6, 40]: 8
Minimum inhibitory concentration [6, 41]: 16
Minimum inhibitory concentration [6, 42]: 16
Minimum inhibitory concentration [7, 43]: 16
Minimum inhibitory concentration [7, 44]: 16
Minimum inhibitory concentration [7, 45]: 8
Minimum inhibitory concentration [7, 46]: 64
Minimum inhibitory concentration [8, 47]: 16
Minimum inhibitory concentration [8, 48]: 8
Minimum inhibitory concentration [8, 49]: 8
Minimum inhibitory concentration [8, 50]: 8
Minimum inhibitory concentration [9]: 4
Minimum inhibitory concentration [10, 51]: 2
Minimum inhibitory concentration [10, 52]: 2
Minimum inhibitory concentration [10, 53]: 1
Minimum inhibitory concentration [10, 54]: 0.5
Minimum inhibitory concentration [10, 55]: 1
Minimum inhibitory concentration [11, 56]: 8
Minimum inhibitory concentration [11, 57]: 8
Minimum inhibitory concentration [11, 58]: 4
Minimum inhibitory concentration [11, 59]: 8
Minimum inhibitory concentration [11, 60]: 4
Minimum inhibitory concentration [12, 61]: 16
Minimum inhibitory concentration [12, 62]: 8
Minimum inhibitory concentration [12, 63]: 16
Minimum inhibitory concentration [12, 64]: 8
Minimum inhibitory concentration [12, 65]: 4
